The values below come from article PMC11815855, “Exploring the Structure–Activity Relationships of Albumin-Targeted Picoplatin-Based Platinum(IV) Prodrugs” (Inorganic Chemistry, 2025).

Marks after values point to notes of the source that are not given here.

Series [1] relates to A2780/wt ovarian cancer cells. Put plainly: MTT-based cell viability assay, A2780/wt, 72 h. The arrangement: species or system human. The conditions noted are these: 72 h drug exposure, means of independent experiments. The text has this:
(§1) For the cell culture assays, the human ovarian model A2780/wt and its corresponding cisplatin-resistant subline A2780/cis (both purchased from Sigma and cultured in RPMI1640 medium), the human colorectal cancer model HCT116 (cultured in McCoy′s medium), and the murine (Balb/c) colorectal cancer model CT26 (cultured in DMEM/F-12 (1:1) medium) were used. The colon cancer models were purchased from the American Type Culture Collection (ATCC). The media were supplemented with 10% FCS (purchased from PAA Linz, Austria). To maintain drug resistance of A2780/cis, the subline was cultivated under continuous selection pressure (1 μM cisplatin). The selection drug was removed 1 week before the experiments were performed. Cell cultures were maintained at 37 °C in humidified atmosphere containing 5% CO2. All cultures were free of antibiotics and regularly checked for mycoplasma contamination. All cell culture media and reagents were purchased from Sigma-Aldrich Austria. All investigated drugs were dissolved in either water (oxaliplatin, carboplatin) or DMF before further dilution in cell culture medium. DMF concentrations were always below 0.5%.
(§2) Subsequently, the cells were incubated with the tested compounds in rising concentrations. […] The received data were visualized as dose–response curves by Graph Pad Prism 5 software (Graph Pad software, USA).

The subject of series [2] is A2780/cis ovarian cancer cells. Put plainly: MTT-based cell viability assay, A2780/cis (cisplatin-resistant), 72 h. The arrangement: species or system human. The conditions noted are these: for IC50: 72 h drug exposure, cisplatin-resistant subline, means of independent experiments; for IC50 / IC50 in A2780/cis compared to A2780/wt: MTT-based assay; for IC50 in A2780/cis compared to A2780/wt / RF (resistance factor): 72 h; for RF (resistance factor): fold-change between IC50 values of A2780/cis:A2780/wt.
Description: as §1, §2
In general terms: Tetrazolium assays rely on reduction of a dye to a coloured formazan, in cell work by metabolically active cells.

For series [3], the system named is HCT116 colon cancer cells. In words: MTT-based cell viability assay, HCT116, 72 h. Particulars: 72 h drug exposure. The arrangement: species or system human.
Description: as §1, §2

Series [4] concerns CT26 colon cancer cells. In words: MTT-based cell viability assay, CT26, 72 h. The arrangement: species or system murine. Particulars: 72 h drug exposure.
Description: as §1, §2

Series [5] deals with HCT116 colon cancer cells. Put plainly: Colony formation (clonogenic) assay, HCT116, 7 days. Format: cell-based, human. Particulars: 7 days drug exposure, clonogenic assay.
Description: as §1
(§3) Then, cells were exposed to the indicated drugs in rising concentrations. After 7 days, the cells were fixed with methanol for 20 min at 4 °C and stained with crystal violet 5 (0.01% in PBS). The fluorescence of the crystal violet was detected by the Typhoon scanner (Typhoon TRIO Variable Mode Imager, GE Healthcare Life Sciences) after excitation by the red laser (633 nm). Quantification was done with ImageJ software.

Series [6] concerns CT26 colon cancer cells. In words: Colony formation (clonogenic) assay, CT26, 7 days. Particulars: 7 days drug exposure. The class given is cell-based, murine.
Description: as §1, §3

Series [7] in a line: Interaction of platinum(II) complexes with 10 equiv GSH, NMR. Format: physicochemical. Particulars: 1 mM complex, 10% D2O/90% PBS pH 7.4, 37 °C. Here is the method: The amount of remaining platinum(II) complex was monitored via ^1H NMR spectroscopy and, particularly for ^15N-cisplatin, via [^1H, ^15N] heteronuclear single quantum coherence (HSQC) NMR spectroscopy (Figure 1).[47]
(§4) An 1 mM solution of Pt compound was incubated in a mixture of 90% PB or PBS (150 mM, pH 7.4) and 10% D2O at 37 °C with and without the addition of 10 equiv GSH. The reaction was monitored with ^1H or [^1H, ^15N] […] The reference spectrum was shifted with a value of −0.5 ppm compared to the original ppm value calibrated to D2O before overlay with a spectrum at a single time point. In case of ^15N-cisplatin, the cross-peak of the parental complex in [^1H, ^15N] HSQC at time point 0 h was used as reference, and spectral overlay was achieved by shifting the 2D spectra at all given time points (2, 4, 6, and 8 h) with vertical steps of +14 ppm compared to the original ^15N NMR ppm value of the parental complex.

The nature of series [8]: Stability of platinum(II) complexes in PBS or PB, NMR. Format: physicochemical. Particulars: 1 mM, pH 7.4, 37 °C, 8 h incubation, no GSH. Here is the method: as §4
Series [9] has as its system CT26 tumors. Put plainly: Anticancer activity in vivo, CT26-bearing Balb/c mice. Particulars: i.v. on days 3 and 10, dose equimolar to 20 mg/kg picoplatin. Here is the method: Ten-week-old Balb/c mice were purchased from Envigo Laboratories (San Pietro al Natisone, Italy). […] Animals were controlled for distress development every day, and tumor size was assessed regularly by caliper measurement. Tumor volume was calculated using the formula: (length × width^2)/2.
CT26 cells (5 × 10^5 in serum-free medium) were injected subcutaneously into the right flank of male Balb/c mice. Therapy was started when tumor nodules were palpable (day 3). […] Mice were sacrificed by cervical dislocation in the case of a tumor length >20 mm, tumor ulceration, or other signs for distress.

Series [10] is described as follows: Reduction kinetics of platinum(IV)-succinimide complexes with AA, UHPLC. The class given is physicochemical. Particulars: 1 mM, 10 equiv AA, 150 mM PB pH 7.4, 20 °C, 6 h. The protocol: Platinum(IV) prodrugs need to be reduced in the tumor environment to release the cytotoxic platinum(II) complexes. Thus, the reduction properties of Pico-Succ, PicoCarbo-Succ, and PicoOxali-Succ were investigated. As mentioned above, succinimide complexes were used for these studies to avoid competitive hydrolysis of the maleimide moiety. All platinum(IV)-succinimide complexes were incubated in both the absence and presence of a 10-fold excess L-ascorbic acid (AA) in PB at pH 7.4 and 20 °C over 6 h. The amount of remaining intact platinum(IV) complex at given time points was measured via ultrahigh performance liquid chromatography (UHPLC), as shown in Figure 2. Pico-Succ was reduced extremely fast, with only traces of the original complex left in the first measurement after ∼5 min of incubation. Even with equimolar amounts of AA, 90% of Pico-Succ was already reduced after ∼5 min (Figure S6). This level of reductive instability is exceptionally high, even when compared to the “fast” reducing cisplatin(IV) prodrugs, which show a complete conversion after ∼10 h in the presence of 10 equiv AA.[41],[53]
(§5) PB (150 mM, pH 7.4) containing 1 mM Pt compound was incubated at 20 °C with and without the addition of 10 equiv L-ascorbic acid or reduced GSH. The reaction was monitored on a Thermo Scientific Dionex UltiMate 3000 UHPLC-system using a Waters Acquity UPLC BEH C18 1.7 μm, 3.0 × 50 mm column. Milli-Q water containing 0.1% formic acid and acetonitrile containing 0.1% formic acid were used as eluents. A gradient of 5–95% over 5 min was used with a flow of 0.6 mL/min. To evaluate the reaction process, we used the peak area of the parental complex.

Series [11] is described as follows: Reduction of platinum(IV)-succinimide complexes with 10 equiv GSH, UHPLC. The class given is physicochemical. The conditions noted are these: 1 mM, 150 mM PB pH 7.4, 20 °C, 6 h.
Description: It is well-known that platinum(IV) complexes derived from, e.g., oxaliplatin or carboplatin, bearing leaving groups other than chlorido ligands, have distinctly slower reduction rates compared to cisplatin(IV) analogs.[54] This can be explained by a bridging interaction between the chlorido ligands and the reducing agent, which facilitates electron transfer to the platinum center.[55] […] The reductive behavior was also investigated in the presence of 10 equiv GSH in coherence with the above investigated interactions of platinum(II) with GSH (Figure S8).
as §5

For series [12], the target named is albumin (Bos taurus, UniProt P02769). Put plainly: Albumin binding and stability in phosphate-buffered FCS, SEC-ICP-MS. Particulars: 50 μM in FCS (150 mM PB, pH 7.4), 37 °C, over 25 h; 195Pt only in LMWF. The protocol:
FCS was purchased from Sigma-Aldrich and buffered with 150 mM phosphate pH 7.4 in order to guarantee a stable pH. The platinum(IV) complexes were dissolved in 150 mM PB (pH 7.4) at a concentration of 5 mM and diluted 1:100 in buffered serum to obtain a final concentration of 50 μM. […] Between each sample, a pure water blank was measured. […] Oxygen (purity 5.5, Messer Austria GmbH, Gumpoldskirchen, Austria) was used as the reaction gas.

Sequence of albumin (P02769 25-607): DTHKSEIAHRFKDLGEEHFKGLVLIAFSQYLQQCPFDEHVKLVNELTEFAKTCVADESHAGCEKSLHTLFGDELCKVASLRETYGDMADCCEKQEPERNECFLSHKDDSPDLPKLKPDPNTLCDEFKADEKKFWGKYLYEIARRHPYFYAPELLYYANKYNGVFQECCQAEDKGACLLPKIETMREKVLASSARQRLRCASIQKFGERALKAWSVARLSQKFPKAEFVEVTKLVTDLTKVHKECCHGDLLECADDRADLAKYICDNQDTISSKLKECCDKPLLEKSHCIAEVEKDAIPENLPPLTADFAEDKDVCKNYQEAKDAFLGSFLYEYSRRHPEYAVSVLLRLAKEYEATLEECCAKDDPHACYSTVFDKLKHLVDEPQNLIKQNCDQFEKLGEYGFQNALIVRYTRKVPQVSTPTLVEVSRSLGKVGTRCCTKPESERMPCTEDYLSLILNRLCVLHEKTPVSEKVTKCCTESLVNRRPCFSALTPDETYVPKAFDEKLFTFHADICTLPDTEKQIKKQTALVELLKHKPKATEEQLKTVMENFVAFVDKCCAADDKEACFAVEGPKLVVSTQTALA

For orientation: IC50 means the concentration needed to halve the response being measured. A high value points to weaker potency. As for `Cc1ccccn1.N.O=C1[O][Pt][O]C(=O)C12CCC2` [PicoCarbo, (SP-4-4)[(Ammine)(cyclobutane-1,1-dicarboxylato)(2-methylpyridine)platinum(II)]], the IC50 is above 100 µM in series [1]; above 100 µM in series [2]; above 100 µM in series [3]; 74.5 µM in series [4]; 90 µM in series [5]; 26.3 µM in series [6]. The “intact platinum(II) complex left after 8 h with GSH” value in series [7] (8 h, 1H NMR) is around 90%. Besides, in series [8], the “complex left in 10% D2O/90% PBS” value was above 95%.
`CC(=O)[O][Pt]1([O]C(=O)NCCN2C(=O)C=CC2=O)[O]C(=O)C2(CCC2)C(=O)[O]1.Cc1ccccn1.N` [PicoCarbo-Mal, (OC-6-21)[Acetato(ammine)(cyclobutane-1,1-dicarboxylato)(1-(2-isocyanatoethyl)-1H-pyrrole-2,5-dione)(2-methylpyridine)platinum(IV)]]: the “impact on tumor growth” value in [9] is “significantly inhibited tumor growth”.
Consider `CC(=O)[O][Pt]1([O]C(=O)NCCN2C(=O)CCC2=O)[O]C(=O)C2(CCC2)C(=O)[O]1.Cc1ccccn1.N` [PicoCarbo-Succ, (OC-6-21)[Acetato(ammine)(cyclobutane-1,1-dicarboxylato)(1-(2-isocyanatoethyl)pyrrolidine-2,5-dione)(2-methylpyridine)platinum(IV)]], for which the IC50 in series [1], in [2], in series [3], in series [4], in series [5] and in series [6] was above 100 µM throughout. In addition, in [10], the “intact platinum(IV) complex left after 6 h with AA” value is listed as around 90%. Besides, the “reduction with 10 equiv GSH over 6 h” value in series [11] is listed as “no notable reduction”.
Regarding `CC(=O)[O][Pt]1([O]C(=O)NCCN2C(=O)CCC2=O)[O]C(=O)C(=O)[O]1.Cc1ccccn1.N` [PicoOxali-Succ, (OC-6-21)[Acetato(ammine)(1-(2-isocyanatoethyl)pyrrolidine-2,5-dione)(2-methylpyridine)(oxalato)platinum(IV)]], the IC50 in series [1], in series [2], in [3], in [4], in [5] and in series [6] was above 100 µM throughout. Besides, in [10], the “intact platinum(IV) complex left after 6 h with AA” value is around 70%. In addition, the “reduction with 10 equiv GSH over 6 h” value in [11] was “no notable reduction”. Besides, in series [12], the albumin conjugation result is given as “no albumin conjugation”.
Turning to `Cc1ccccn1.N.O=C1[O][Pt][O]C1=O` [PicoOxali], the IC50 in series [1] is 33.4 µM; in series [2], 46 µM; in [3] it was above 100 µM; in series [4], 33.7 µM; in series [5], 15.8 µM; in series [6], 7.26 µM. Further, the “IC50 in A2780/cis compared to A2780/wt” value in series [2] turned out to be 1.4 fold. The “RF (resistance factor)” value in series [2] is recorded as 1.4^ns. For the same molecule, in series [8], the “complex left in 10% D2O/90% PB” value was above 90%. Further, the “complex left in 10% D2O/90% PBS” value in series [8] is recorded as “readily degraded”.
For `[15NH3].[15NH3].[Cl][Pt][Cl]` [^15N-cisplatin, cis-[PtCl2(^15NH3)2]], in series [7] (2 h, [1H,15N] HSQC NMR), the “platinum(II) complex left after 2 h with GSH” value was around 20%. For the same molecule, in [7] (4 h), the “platinum(II) complex reacted with GSH after 4 h” value was “nearly complete reaction”. Besides, the “complex left in 10% D2O/90% PBS” value in series [8] is above 95%.
Take `N.N.[Cl][Pt][Cl]` [cisplatin, reference compound]: the IC50 in [1] was found to be 1.54 µM; in series [2], 7.81 µM; in [3], 3.15 µM; in [4], 2.17 µM; in series [5] it was 0.82 µM; in [6], 0.46 µM. For the same molecule, in [2], the “IC50 in A2780/cis compared to A2780/wt” value was determined as 5.1 fold. In [2], the “RF (resistance factor)” value is reported as 5.1****.
